Each structure is given as a SMILES string.

Consider 22 compounds from patent publication US20250312352A1, “GLP-1R MODULATING COMPOUNDS” (Gilead Sciences, Inc., priority 2021, published 2025).

This assay concerns the target T1, GLP-1R (Homo sapiens, UniProt P43220).
T1 construct: host or cells: CHO cells
The assay can be described thus: GLP-1R activation cAMP assay (Assay 1 or Assay 2). The class given is cell-based. To be noted: cAMP increase in CHO cells stably expressing GLP-1R; compounds run on one of the two cAMP assays. The method in brief: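 CHO cells stably expressing human GLP-1R were incubated 1 h in HBSS/20 mM HEPES/0.1% BSA, then exposed to 10-point agonist dilutions for 30 min at 37 °C. cAMP increase was measured with an HTRF Gs dynamic kit; EC50 from sigmoidal fit of response versus log concentration.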
For orientation: Changes in cAMP serve as a functional read-out for many G protein-coupled receptors.

T1 sequence (P43220 24-463): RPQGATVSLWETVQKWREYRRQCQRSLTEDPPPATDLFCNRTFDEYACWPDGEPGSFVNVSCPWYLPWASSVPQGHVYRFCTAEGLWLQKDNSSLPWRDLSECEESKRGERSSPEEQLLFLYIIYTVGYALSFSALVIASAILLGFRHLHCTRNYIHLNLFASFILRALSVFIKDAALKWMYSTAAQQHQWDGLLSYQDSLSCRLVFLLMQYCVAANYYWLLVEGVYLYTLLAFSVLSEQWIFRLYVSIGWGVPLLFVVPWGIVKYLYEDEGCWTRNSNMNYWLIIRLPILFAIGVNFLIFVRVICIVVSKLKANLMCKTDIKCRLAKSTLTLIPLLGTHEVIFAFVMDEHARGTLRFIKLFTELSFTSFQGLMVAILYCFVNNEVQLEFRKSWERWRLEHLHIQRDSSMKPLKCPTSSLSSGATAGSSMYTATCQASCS

As a reminder, the EC50 is the concentration that produces a half-maximal response. `Cn1cc(C#Cc2ccc(COc3cccc(-c4cc(F)c(Cc5nc6ccc(C(=O)O)cc6n5C[C@@H]5CCO5)cc4F)n3)c(Cl)n2)cn1` [Example 363, (S)-2-(4-(6-((2-chloro-6-((1-methyl-1H-pyrazol-4-yl)ethynyl)pyridin-3-yl)methoxy)pyridin-2-yl)-2,5-difluorobenzyl)-1-(oxetan-2-ylmethyl)-1H-benzo[d]imidazole-6-carboxylic acid] had an EC50 of 0.295 nM.
With `Cc1c(C#Cc2ccc(COc3cccc(-c4cc(F)c(Cc5nc6ccc(C(=O)O)cc6n5C[C@@H]5CCO5)cc4F)n3)c(F)c2)cnn1C` [Example 364, (S)-2-(4-(6-((4-((1,5-dimethyl-1H-pyrazol-4-yl)ethynyl)-2-fluorobenzyl)oxy)pyridin-2-yl)-2,5-difluorobenzyl)-1-(oxetan-2-ylmethyl)-1H-benzo[d]imidazole-6-carboxylic acid] the figure was 0.929 nM.
With `CNC(=O)c1cc(Cl)c(COc2cccc(-c3cc(F)c(Cc4nc5c(F)cc(C(=O)O)cc5n4[C@@H]4COCC4(C)C)cc3F)n2)cn1` [Example 365, (S)-2-(4-(6-((4-chloro-6-(methylcarbamoyl)pyridin-3-yl)methoxy)pyridin-2-yl)-2,5-difluorobenzyl)-1-(4,4-dimethyltetrahydrofuran-3-yl)-4-fluoro-1H-benzo[d]imidazole-6-carboxylic acid] the figure was 0.164 nM; with `Cn1ccc(CNC(=O)c2cc(Cl)c(COc3cccc(-c4cc(F)c(Cc5nc6ccc(C(=O)O)cc6n5C[C@@H]5CCO5)cc4F)n3)cn2)n1` [Example 366, (S)-2-(4-(6-((4-chloro-6-(((1-methyl-1H-pyrazol-3-yl)methyl)carbamoyl)pyridin-3-yl)methoxy)pyridin-2-yl)-2,5-difluorobenzyl)-1-(oxetan-2-ylmethyl)-1H-benzo[d]imidazole-6-carboxylic acid], 0.56 nM; with `COc1nnc(COc2nc(-c3cc(F)c(Cc4nc5c(Cl)cc(C(=O)O)cc5n4[C@@H]4COCC4(C)C)cc3F)ccc2F)s1` [Example 367, (S)-4-chloro-2-(2,5-difluoro-4-(5-fluoro-6-((5-methoxy-1,3,4-thiadiazol-2-yl)methoxy)pyridin-2-yl)benzyl)-1-(4,4-dimethyltetrahydrofuran-3-yl)-1H-benzo[d]imidazole-6-carboxylic acid], 0.235 nM.
The value for `COc1nnc(COc2nc(-c3cc(F)c(Cc4nc5ccc(C(=O)O)cc5n4CC4(CF)CC4)c(F)c3F)ccc2F)s1` [Example 368, 1-((1-(fluoromethyl)cyclopropyl)methyl)-2-(2,3,6-trifluoro-4-(5-fluoro-6-((5-methoxy-1,3,4-thiadiazol-2-yl)methoxy)pyridin-2-yl)benzyl)-1H-benzo[d]imidazole-6-carboxylic acid] was 0.712 nM; that for `Cc1cc(Cc2nc3ccc(C(=O)O)cc3n2C[C@@H]2CCO2)c(Cl)cc1-c1ccc(F)c(OCc2ncc(C(F)(F)F)s2)n1` [Example 369, (S)-2-(2-chloro-4-(5-fluoro-6-((5-(trifluoromethyl)thiazol-2-yl)methoxy)pyridin-2-yl)-5-methylbenzyl)-1-(oxetan-2-ylmethyl)-1H-benzo[d]imidazole-6-carboxylic acid] was 0.683 nM.
As for `O=C(O)c1ccc2nc(Cc3cc(F)c(-c4ccc(F)c(OCc5ncc(C(F)(F)F)s5)n4)cc3F)n(C[C@@H]3CCO3)c2c1` [Example 370, (S)-2-(2,5-difluoro-4-(5-fluoro-6-((5-(trifluoromethyl)thiazol-2-yl)methoxy)pyridin-2-yl)benzyl)-1-(oxetan-2-ylmethyl)-1H-benzo[d]imidazole-6-carboxylic acid], it took 0.28 nM to reach a half-maximal effect (EC50).
The value for `Cc1cc(Cc2nc3ccc(C(=O)O)cc3n2[C@@H]2COCC2(C)C)c(Cl)cc1-c1ccc(F)c(OCc2ncc(C(F)(F)F)s2)n1` [Example 371, (S)-2-(2-chloro-4-(5-fluoro-6-((5-(trifluoromethyl)thiazol-2-yl)methoxy)pyridin-2-yl)-5-methylbenzyl)-1-(4,4-dimethyltetrahydrofuran-3-yl)-1H-benzo[d]imidazole-6-carboxylic acid] was 1.77 nM; that for `N#Cc1cnc(COc2cccc(-c3cc(F)c(Cc4nc5c(F)cc(C(=O)O)cc5n4C[C@@H]4CCO4)cc3F)n2)s1` [Example 372, 2-[[4-[6-[(5-cyanothiazol-2-yl)methoxy]-2-pyridyl]-2,5-difluoro-phenyl]methyl]-7-fluoro-3-[[(2S)-oxetan-2-yl]methyl]benzimidazole-5-carboxylic acid] was 0.024 nM.
The value for `CNC(=O)c1csc(COc2cccc(-c3cc(F)c(Cc4nc5ccc(C(=O)O)cc5n4C[C@@H]4CCO4)cc3F)n2)n1` [Example 373, (S)-2-(2,5-difluoro-4-(6-((4-(methylcarbamoyl)thiazol-2-yl)methoxy)pyridin-2-yl)benzyl)-1-(oxetan-2-ylmethyl)-1H-benzo[d]imidazole-6-carboxylic acid] was 0.079 nM.
The compound `NC(=O)c1cccc(COc2cccc(-c3cc(F)c(Cc4nc5ccc(C(=O)O)cc5n4C[C@@H]4CCO4)cc3F)n2)n1` [Example 374, (S)-2-(4-(6-((6-carbamoylpyridin-2-yl)methoxy)pyridin-2-yl)-2,5-difluorobenzyl)-1-(oxetan-2-ylmethyl)-1H-benzo[d]imidazole-6-carboxylic acid] yielded an EC50 of 0.478 nM.
The value for `N#CCCNC(=O)c1ccc(COc2cccc(-c3cc(F)c(Cc4nc5ccc(C(=O)O)cc5n4C[C@@H]4CCO4)cc3F)n2)cn1` [Example 375, (S)-2-(4-(6-((6-((2-cyanoethyl)carbamoyl)pyridin-3-yl)methoxy)pyridin-2-yl)-2,5-difluorobenzyl)-1-(oxetan-2-ylmethyl)-1H-benzo[d]imidazole-6-carboxylic acid] was 0.372 nM.
With `O=C(O)c1cc(F)c2nc(Cc3c(F)cc(-c4ccnc(OCc5nc(C(F)(F)F)cs5)n4)c(F)c3F)n(C[C@@H]3CCO3)c2c1` [Example 377, (S)-4-fluoro-1-(oxetan-2-ylmethyl)-2-(2,3,6-trifluoro-4-(2-((4-(trifluoromethyl)thiazol-2-yl)methoxy)pyrimidin-4-yl)benzyl)-1H-benzo[d]imidazole-6-carboxylic acid] the figure was 0.481 nM; with `CC(F)(F)c1cnc(COc2nc(-c3cc(F)c(Cc4nc5c(F)cc(C(=O)O)cc5n4C[C@@H]4CCO4)c(F)c3F)ccc2F)s1` [Example 378, (S)-2-(4-(6-((5-(1,1-difluoroethyl)thiazol-2-yl)methoxy)-5-fluoropyridin-2-yl)-2,3,6-trifluorobenzyl)-4-fluoro-1-(oxetan-2-ylmethyl)-1H-benzo[d]imidazole-6-carboxylic acid], 0.068 nM; with `CC1(C#Cc2cnc(COc3cccc(-c4cc(F)c(Cc5nc6c(F)cc(C(=O)O)cc6n5C[C@@H]5CCO5)cc4F)n3)c(Cl)c2)CC1` [Example 379, (S)-2-(4-(6-((3-chloro-5-((1-methylcyclopropyl)ethynyl)pyridin-2-yl)methoxy)pyridin-2-yl)-2,5-difluorobenzyl)-4-fluoro-1-(oxetan-2-ylmethyl)-1H-benzo[d]imidazole-6-carboxylic acid], 0.303 nM.
With `O=C(O)c1cc(F)c2nc(Cc3cc(F)c(-c4cccc(OCc5ncc(C#CC6(CF)CC6)cc5Cl)n4)cc3F)n(C[C@@H]3CCO3)c2c1` [Example 380, (S)-2-(4-(6-((3-chloro-5-((1-(fluoromethyl)cyclopropyl)ethynyl)pyridin-2-yl)methoxy)pyridin-2-yl)-2,5-difluorobenzyl)-4-fluoro-1-(oxetan-2-ylmethyl)-1H-benzo[d]imidazole-6-carboxylic acid] the figure was 0.078 nM; with `O=C(O)c1cc(F)c2nc(Cc3cc(F)c(-c4cccc(OCc5ncc(C#CC6(C(F)F)CC6)cc5Cl)n4)cc3F)n(C[C@@H]3CCO3)c2c1` [Example 381, (S)-2-(4-(6-((3-chloro-5-((1-(difluoromethyl)cyclopropyl)ethynyl)pyridin-2-yl)methoxy)pyridin-2-yl)-2,5-difluorobenzyl)-4-fluoro-1-(oxetan-2-ylmethyl)-1H-benzo[d]imidazole-6-carboxylic acid], 0.301 nM; with `O=C(O)c1ccc2nc(Cc3cc(F)c(-c4cccc(OCc5ncc(-c6ccc(C(F)(F)F)cc6)s5)n4)cc3F)n(C[C@H]3CCO3)c2c1` [Example 382, (R)-2-(2,5-difluoro-4-(6-((5-(4-(trifluoromethyl)phenyl)thiazol-2-yl)methoxy)pyridin-2-yl)benzyl)-1-(oxetan-2-ylmethyl)-1H-benzo[d]imidazole-6-carboxylic acid], 1.27 nM.
For the compound `N#Cc1ccc(-c2cnc(COc3cccc(-c4cc(F)c(Cc5nc6ccc(C(=O)O)cc6n5C[C@@H]5CCO5)cc4F)n3)s2)cc1` [Example 383, (S)-2-(4-(6-((5-(4-cyanophenyl)thiazol-2-yl)methoxy)pyridin-2-yl)-2,5-difluorobenzyl)-1-(oxetan-2-ylmethyl)-1H-benzo[d]imidazole-6-carboxylic acid], the EC50 was found to be 0.6 nM.
With `O=C(O)c1ccc2nc(Cc3cc(F)c(-c4cccc(OCc5ncc(-c6ccc(Cl)cc6)s5)n4)cc3F)n(C[C@@H]3CCO3)c2c1` [Example 384, (S)-2-(4-(6-((5-(4-chlorophenyl)thiazol-2-yl)methoxy)pyridin-2-yl)-2,5-difluorobenzyl)-1-(oxetan-2-ylmethyl)-1H-benzo[d]imidazole-6-carboxylic acid] the figure was 0.563 nM; with `O=C(O)c1ccc2nc(Cc3cc(F)c(-c4cccc(OCc5nnc(C6CC(F)(F)C6)s5)n4)cc3F)n(C[C@@H]3CCO3)c2c1` [Example 385, (S)-2-(4-(6-((5-(3,3-difluorocyclobutyl)-1,3,4-thiadiazol-2-yl)methoxy)pyridin-2-yl)-2,5-difluorobenzyl)-1-(oxetan-2-ylmethyl)-1H-benzo[d]imidazole-6-carboxylic acid], 0.11 nM.
